PubChem BioAssay (NCI)
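Assay format: 96-well plates, 48-hour exposure. At the GI50, growth is halved. The concentration for full growth arrest is given as TGI.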

Columns and labels:
Experiment in all cases: NCI tumour cell line growth inhibition, 48 h
[1] = test system: 786-0 renal
[2] = test system: A498 renal
[3] = test system: A549 NSCLC
[4] = test system: ACHN renal
[5] = test system: BT-549 breast
[6] = test system: CAKI-1 renal
[7] = test system: CCRF-CEM leukemia
[8] = test system: COLO 205 colon
[9] = test system: DU-145 prostate
[10] = test system: EKVX NSCLC
[11] = test system: HCC-2998 colon
[12] = test system: HCT-116 colon
[13] = test system: HCT-15 colon
[14] = test system: HL-60(TB) leukemia
[15] = test system: HOP-62 NSCLC
[16] = test system: HOP-92 NSCLC
[17] = test system: HS 578T breast
[18] = test system: HT29 colon
[19] = test system: IGROV1 ovarian
[20] = test system: K-562 leukemia
[21] = test system: KM12 colon
[22] = test system: LOX IMVI melanoma
[23] = test system: M14 melanoma
[24] = test system: MALME-3M melanoma
[25] = test system: MCF7 breast
[26] = test system: MDA-MB-231 breast
[27] = test system: MDA-MB-435
[28] = test system: MDA-MB-468 breast
[29] = test system: MOLT-4 leukemia
[30] = test system: NCI-H226 lung
[31] = test system: NCI-H23 lung
[32] = test system: NCI-H460 lung
[33] = test system: NCI-H522 lung
[34] = test system: NCI/ADR-RES ovarian
[35] = test system: OVCAR-3 ovarian
[36] = test system: OVCAR-4 ovarian
[37] = test system: OVCAR-5 ovarian
[38] = test system: OVCAR-8 ovarian
[39] = test system: PC-3 prostate
[40] = test system: RPMI-8226 leukemia
[41] = test system: RXF 393 renal
[42] = test system: SF-268 CNS
[43] = test system: SF-295 CNS
[44] = test system: SF-539 CNS
[45] = test system: SK-MEL-2 melanoma
[46] = test system: SK-MEL-28 melanoma
[47] = test system: SK-MEL-5 melanoma
[48] = test system: SK-OV-3 ovarian
[49] = test system: SN12C renal
[50] = test system: SNB-19 CNS
[51] = test system: SNB-75 CNS
[52] = test system: SR leukemia
[53] = test system: SW-620 colon
[54] = test system: T-47D breast
[55] = test system: TK-10 renal
[56] = test system: U251 CNS
[57] = test system: UACC-257 melanoma
[58] = test system: UACC-62 melanoma
[59] = test system: UO-31 renal

Compound: C/C(=C\CC/C=C(\C)CC/C=C(\C)CC[C@@H](O)C(C)(C)O)CC/C=C(\C)CC[C@@H](O)C(C)(C)O
- GI50 [1]: 10.8 µM
- TGI [1]: 24.1 µM
- GI50 [2]: 12.6 µM
- TGI [2]: 25.7 µM
- GI50 [3]: 10 µM
- TGI [3]: 30.2 µM
- GI50 [4]: 5.78 µM
- TGI [4]: 18.3 µM
- GI50 [5]: 5.14 µM
- TGI [5]: 17.4 µM
- GI50 [6]: 12.3 µM
- TGI [6]: 25.1 µM
- GI50 [7]: 17.9 µM
- TGI [7]: 39.7 µM
- GI50 [8]: 17.8 µM
- TGI [8]: 34.6 µM
- GI50 [9]: 15.5 µM
- TGI [9]: 29 µM
- GI50 [10]: 7.68 µM
- TGI [10]: 20.5 µM
- GI50 [11]: 13.5 µM
- TGI [11]: 26.4 µM
- GI50 [12]: 6.39 µM
- TGI [12]: 21.3 µM
- GI50 [13]: 10.9 µM
- TGI [13]: 22.8 µM
- GI50 [14]: 3.1 µM
- TGI [14]: 11.2 µM
- GI50 [15]: 17 µM
- TGI [15]: 34.6 µM
- GI50 [16]: 10.2 µM
- TGI [16]: 23.9 µM
- GI50 [17]: 10.3 µM
- TGI [17]: 26.1 µM
- GI50 [18]: 12 µM
- TGI [18]: 27.4 µM
- GI50 [19]: 15.4 µM
- TGI [19]: 29.2 µM
- GI50 [20]: 5.07 µM
- TGI [20]: > 100 µM
- GI50 [21]: 13.9 µM
- TGI [21]: 27.3 µM
- GI50 [22]: 13.4 µM
- TGI [22]: 26.4 µM
- GI50 [23]: 10.4 µM
- TGI [23]: 23.1 µM
- GI50 [24]: 12 µM
- TGI [24]: 24.5 µM
- GI50 [25]: 6.7 µM
- TGI [25]: 20 µM
- GI50 [26]: 13.6 µM
- TGI [26]: 26.5 µM
- GI50 [27]: 14.7 µM
- TGI [27]: 28 µM
- GI50 [28]: 7.97 µM
- TGI [28]: 21.1 µM
- GI50 [29]: 14.4 µM
- TGI [29]: 44.6 µM
- GI50 [30]: 12.6 µM
- TGI [30]: 27.3 µM
- GI50 [31]: 10.9 µM
- TGI [31]: 23.2 µM
- GI50 [32]: 11.3 µM
- TGI [32]: 24.5 µM
- GI50 [33]: 11 µM
- TGI [33]: 25.9 µM
- GI50 [34]: 11.1 µM
- TGI [34]: 23.6 µM
- GI50 [35]: 13.7 µM
- TGI [35]: 26.7 µM
- GI50 [36]: 11 µM
- TGI [36]: 23.4 µM
- GI50 [37]: 14.5 µM
- TGI [37]: 27.8 µM
- GI50 [38]: 15 µM
- TGI [38]: 34.8 µM
- GI50 [39]: 5.16 µM
- TGI [39]: 20.1 µM
- GI50 [40]: 3.74 µM
- TGI [40]: 18.9 µM
- GI50 [41]: 5.93 µM
- TGI [41]: 20.1 µM
- GI50 [42]: 13.6 µM
- TGI [42]: 28.3 µM
- GI50 [43]: 7.84 µM
- TGI [43]: 20.9 µM
- GI50 [44]: 13.1 µM
- TGI [44]: 26.1 µM
- GI50 [45]: 14.4 µM
- TGI [45]: 30 µM
- GI50 [46]: 12.6 µM
- TGI [46]: 25.4 µM
- GI50 [47]: 5.06 µM
- TGI [47]: 17.4 µM
- GI50 [48]: 15.8 µM
- TGI [48]: 31 µM
- GI50 [49]: 12.6 µM
- TGI [49]: 25.3 µM
- GI50 [50]: 15 µM
- TGI [50]: 28.5 µM
- GI50 [51]: 12.5 µM
- TGI [51]: 25 µM
- GI50 [52]: 18.5 µM
- TGI [52]: 67.8 µM
- GI50 [53]: 14.9 µM
- TGI [53]: 29.4 µM
- GI50 [54]: 7.75 µM
- TGI [54]: 25 µM
- GI50 [55]: 17.6 µM
- TGI [55]: 32.5 µM
- GI50 [56]: 13.4 µM
- TGI [56]: 38.1 µM
- GI50 [57]: 10.7 µM
- TGI [57]: 23.7 µM
- GI50 [58]: 9.71 µM
- TGI [58]: 21.6 µM
- GI50 [59]: 7.71 µM
- TGI [59]: 20.7 µM
